Data: US20220265713A1, “SPHINGOLIPIDS FOR GENERATING REGULATORY CD4+ T CELLS” (Deutsches Krebsforschungszentrum, priority 2019, published 2022)

What was measured:
naïve CD4+ T cells [1] = test: Treg cell in vitro differentiation of naïve CD4+ T cells (flow cytometry of Foxp3); assay type: cell-based, mouse; conditions: sphinganine 5 μM, three days; for Foxp3 protein expression: anti-CD3, anti-CD28, TGFβ 5 ng/ml, IL-2 10 ng/ml, vs vehicle DMSO, FIG. 4A/4C
Experimental: (§1) FIG. 4. Sphinganine promoted the Treg cell in vitro generation and suppressed the inflammatory Th17 cell formation. The YFP-negative CD4^+non-Treg naïve T cells were FACS-sorted (1 ×10^5 cells in 250 μl complete medium) from the Foxp3Cre-YFP mice. The naive T cells were activated with the anti-CD3 and anti-CD28 for three days, in the presence or absence of cytokine TGFβ (5 ng/ml) and IL-2 (10 ng/ml) for Treg cells and TGFβ (5 ng/ml), IL-6 (20 ng/ml) and anti-IFNy (10 μg/ml) for Th17 cells. A: flow cytometry analysis of Foxp3 protein expression after induction of Treg cell formation with sphinganine (5 μM) in the presence of cytokine TGFβ (5 ng/ml) or vehicle control DMSO (no TGFβ). B: Flow cytometry analysis of IL-17 protein expression after induction of Th17 cell formation with TGFβ (5 ng/ml), IL-6 (20 ng/ml) and anti-IFNy (10 μg/ml) in the presence or absence of sphinganine (5 μM). C: Flow cytometry analysis of Foxp3 protein expression after induction of Treg cell formation in the presence of TGFβ (5 ng/ml) and L- serine (5 μM), 3-KDS (5 μM), shinganine (5 μM), dihydroceramide (50 nM), ceramide (50 nM), sphingosine (1 μM), sphingosine-1-phosphate (1 μM), shinganine-1-phosphate (1 μM), or vehicle control DMSO (TGFβ only). D: Structures of sphingolipids, as indicated, and sphingolipid biosynthetic pathway are depicted. The numbers in each FACS plot show the percentages of the indicated cell population within the total population of cells shown in the FACS plot.
Mouse primary T cell culture. Complete medium was used for cell culture and was prepared by supplementing RPMI 1640 plain medium with 10% fetal calf serum, penicillin/streptomycin antibiotics and non-essential amino acids. For Treg and Th17 cell in vitro differentiation, naïve splenic T cells were purified from the Sptic2^+/+Foxp3Cre-YFP wild type mice using the flow cytometry sorter. […]
(§2) Flow Cytometry. […] Samples were run on the LSR II and analyzed using the Flowjo software (FlowJo, LLC, BD). […]

EAE mice = test: EAE mouse model for multiple sclerosis (MOG35-55 immunization), clinical scoring; assay type: in vivo; conditions: C57BL/6 mice, sphinganine 1000 μg/kg body weight intraperitoneally, one injection every two days, day 1 to day 15, FIG. 5
Experimental: EAE induction and monitoring. Each mouse was subcutaneously immunized with 200 μg MOG35-55 peptide emulsified in Freund's Complete Adjuvant. Pertussis toxin (400 ng per mouse) was injected intraperitoneally. Where indicated, mice were intraperitoneally injected with sphinganine (every other day from the day of immunization to the end of the experiments). EAE symptoms were scored every day using the following scoring standard: 0, no sign; 1, limp tail; 2, paraparesis (incomplete paralysis of 1 or 2 hind limbs); 3, paraplegia (complete paralysis of 2 hind limbs); 4, paraplegia with forelimb weakness or paralysis; 5, moribund state or death. For the mouse welfare reason, we sacrificed the mice if the score reached 3. […] C57BL/6 mice were subcutaneously immunized with 200 μg MOG35-55 peptide emulsified in Freund's Complete Adjuvant to induce EAE development. Pertussis toxin (400 ng per mouse) was injected intraperitoneally. Mice were intraperitoneally injected with sphinganine (1000 μg/kg body weight, one injection every two days, from day 1 to day 15). EAE symptoms were scored every day.

naïve CD4+ T cells [2] = test: Th17 cell in vitro differentiation of naïve CD4+ T cells (flow cytometry of IL-17); assay type: cell-based, mouse; conditions: sphinganine 5 μM, three days
Experimental: as §1, with “D: Structures of sphingolipids, as indicated, and sphingolipid biosynthetic pathway are depicted. The numbers in each FACS plot show the percentages of the indicated cell population within the total population of cells shown in the FACS plot.” left out
as §2

CCCCCCCCCCCCCCC[C@@H](O)[C@@H](N)CO [sphinganine]
Treg cell in vitro generation / Treg cell formation (naïve CD4+ T cells [1]; Treg cell-inducing condition (anti-CD3, anti-CD28, TGFβ, IL-2)): promoted | Foxp3 protein expression (naïve CD4+ T cells [1]): increase | Foxp3 protein expression (naïve CD4+ T cells [1]; listed as Sphinganine): further increased | EAE clinical scores / EAE development (EAE mice): reduced | EAE clinical scores / EAE development (EAE mice; listed as Sphinganine): ameliorated EAE development | IL-17 production / IL-17 protein expression (naïve CD4+ T cells [2]; Th17 cell-differentiation condition: TGFβ 5 ng/ml, IL-6 20 ng/ml, anti-IFNy 10 μg/ml, FIG. 4B): reduced | inflammatory Th17 cell formation (naïve CD4+ T cells [2]; TGFβ, IL-6, anti-IFNy): suppressed
